ChEMBL document CHEMBL2401728, “An unexpected Dimroth rearrangement leading to annelated thieno[3,2-d][1,2,3]triazolo[1,5-a]pyrimidines with potent antitumor activity” (Eur J Med Chem, 2013)

Experiments:
Assay type in all cases: functional
[1] = system: IGROV-1; test: Cytotoxicity against human IGROV1 cells assessed as cellular growth at 0.01 uM after 48 hrs by SRB assay relative to control
[2] = system: SK-MEL-28; test: Cytotoxicity against human SK-MEL-28 cells assessed as cellular growth at 0.01 uM after 48 hrs by SRB assay relative to control
[3] = system: MDA-MB-435; test: Cytotoxicity against human MDA-MB-435 cells assessed as cellular growth at 0.01 uM after 48 hrs by SRB assay relative to control
[4] = system: Malme-3M; test: Cytotoxicity against human MALME-3M cells assessed as cellular growth at 0.01 uM after 48 hrs by SRB assay relative to control
[5] = system: HCT-116; test: Cytotoxicity against human HCT116 cells assessed as cellular growth at 0.01 uM after 48 hrs by SRB assay relative to control
[6] = system: NCI-H322M; test: Cytotoxicity against human NCI-H322M cells assessed as cellular growth at 0.01 uM after 48 hrs by SRB assay relative to control
[7] = system: OVCAR-3; test: Cytotoxicity against human OVCAR3 cells assessed as cellular growth at 100 uM after 48 hrs by SRB assay relative to control
[8] = system: M14; test: Cytotoxicity against human M14 cells assessed as cellular growth at 100 uM after 48 hrs by SRB assay relative to control
[9] = system: U-251; test: Cytotoxicity against human U251 cells assessed as cellular growth at 100 uM after 48 hrs by SRB assay relative to control
[10] = system: NCI-H322M; test: Cytotoxicity against human NCI-H322M cells assessed as cellular growth at 100 uM after 48 hrs by SRB assay relative to control
[11] = system: HOP-62; test: Cytotoxicity against human HOP62 cells assessed as cellular growth at 100 uM after 48 hrs by SRB assay relative to control
[12] = system: 786-0; test: Cytotoxicity against human 786-0 cells assessed as cellular growth at 10 uM after 48 hrs by SRB assay relative to control
[13] = system: OVCAR-8; test: Cytotoxicity against human OVCAR8 cells assessed as cellular growth at 1 uM after 48 hrs by SRB assay relative to control
[14] = system: NCI-H522; test: Cytotoxicity against human NCI-H522 cells assessed as cellular growth at 1 uM after 48 hrs by SRB assay relative to control
[15] = system: HL-60(TB); test: Cytotoxicity against human HL-60(TB) cells assessed as cellular growth at 1 uM after 48 hrs by SRB assay relative to control
[16] = system: DU-145; test: Cytotoxicity against human DU145 cells after 48 hrs by SRB assay; conditions: DU-145, 48 h
[17] = system: TK-10; test: Cytotoxicity against human TK10 cells after 48 hrs by SRB assay; conditions: TK-10, 48 h
[18] = system: RXF 393; test: Cytotoxicity against human RXF393 cells after 48 hrs by SRB assay; conditions: RXF 393, 48 h
[19] = system: SK-MEL-28; test: Cytotoxicity against human SK-MEL-28 cells after 48 hrs by SRB assay; conditions: SK-MEL-28, 48 h
[20] = system: MDA-MB-435; test: Cytotoxicity against human MDA-MB-435 cells after 48 hrs by SRB assay; conditions: MDA-MB-435, 48 h
[21] = system: SNB-75; test: Cytotoxicity against human SNB75 cells after 48 hrs by SRB assay; conditions: SNB-75, 48 h
[22] = system: HCT-15; test: Cytotoxicity against human HCT15 cells after 48 hrs by SRB assay; conditions: HCT-15, 48 h
[23] = system: HOP-92; test: Cytotoxicity against human HOP92 cells after 48 hrs by SRB assay; conditions: HOP-92, 48 h
[24] = system: NCI-H226; test: Cytotoxicity against human NCI-H226 cells after 48 hrs by SRB assay; conditions: NCI-H226, 48 h
[25] = system: SN12C; test: Cytotoxicity against human SN12C cells assessed as cellular growth at 0.1 uM after 48 hrs by SRB assay relative to control
[26] = system: A498; test: Cytotoxicity against human A498 cells assessed as cellular growth at 0.1 uM after 48 hrs by SRB assay relative to control
[27] = system: SK-OV-3; test: Cytotoxicity against human SKOV3 cells assessed as cellular growth at 0.1 uM after 48 hrs by SRB assay relative to control
[28] = Cytotoxicity against human NCI-ADR-RES cells assessed as cellular growth at 0.1 uM after 48 hrs by SRB assay relative to control
[29] = system: KM12; test: Cytotoxicity against human KM12 cells assessed as cellular growth at 0.1 uM after 48 hrs by SRB assay relative to control
[30] = system: NCI-H23; test: Cytotoxicity against human NCI-H23 cells assessed as cellular growth at 0.1 uM after 48 hrs by SRB assay relative to control
[31] = system: NCI-H226; test: Cytotoxicity against human NCI-H226 cells assessed as cellular growth at 0.1 uM after 48 hrs by SRB assay relative to control
[32] = system: A549; test: Cytotoxicity against human A549 cells assessed as cellular growth at 0.1 uM after 48 hrs by SRB assay relative to control
[33] = system: CCRF-CEM; test: Cytotoxicity against human CCRF-CEM cells assessed as cellular growth at 0.1 uM after 48 hrs by SRB assay relative to control
[34] = read-out: LC50 (the source's name)
[35] = read-out: pLC50 (the source's name) (converted)

Compound: O=C(CCCn1c2c(sc3ccccc32)c(=O)n2nnc(-c3ccccc3)c12)NCCc1c[nH]cn1
- Activity [1]: 101%
- Activity [2]: 117%
- Activity [3]: 117%
- Activity [4]: 100%
- Activity [5]: 16%
- Activity [6]: 104%
- Activity [7]: -100%
- Activity [8]: -38%
- Activity [9]: -100%
- Activity [10]: -84%
- Activity [11]: -66%
- Activity [12]: -89%
- Activity [13]: 32%
- Activity [14]: 42%
- Activity [15]: 29%
- GI50 ([16]; read-out: GI50): 1.07 µM
- CC50 [16, 34]: 4.75 µM
- TGI ([16]; read-out: TGI): 2.26 µM
- GI50 ([16]; read-out: pGI50 (converted)): 1.07 µM
- CC50 [16, 35]: 4.79 µM
- TGI ([16]; read-out: pTGI (converted)): 2.24 µM
- GI50 ([17]; read-out: GI50): 2.17 µM
- CC50 [17, 34]: 6.42 µM
- TGI ([17]; read-out: TGI): 3.73 µM
- GI50 ([17]; read-out: pGI50 (converted)): 2.19 µM
- CC50 [17, 35]: 6.46 µM
- TGI ([17]; read-out: pTGI (converted)): 3.72 µM
- GI50 ([18]; read-out: GI50): 2.2 µM
- CC50 [18, 34]: 7.77 µM
- TGI ([18]; read-out: TGI): 4.14 µM
- GI50 ([18]; read-out: pGI50 (converted)): 2.19 µM
- CC50 [18, 35]: 7.76 µM
- TGI ([18]; read-out: pTGI (converted)): 4.17 µM
- GI50 ([19]; read-out: GI50): 1.69 µM
- CC50 [19, 34]: 5.91 µM
- TGI ([19]; read-out: TGI): 3.17 µM
- GI50 ([19]; read-out: pGI50 (converted)): 1.7 µM
- CC50 [19, 35]: 5.89 µM
- TGI ([19]; read-out: pTGI (converted)): 3.16 µM
- GI50 ([20]; read-out: GI50): 0.345 µM
- CC50 [20, 34]: 4.7 µM
- TGI ([20]; read-out: TGI): 1.87 µM
- GI50 ([20]; read-out: pGI50 (converted)): 0.347 µM
- CC50 [20, 35]: 4.68 µM
- TGI ([20]; read-out: pTGI (converted)): 1.86 µM
- GI50 ([21]; read-out: GI50): 1.95 µM
- CC50 [21, 34]: 6.32 µM
- TGI ([21]; read-out: TGI): 3.51 µM
- GI50 ([21]; read-out: pGI50 (converted)): 1.95 µM
- CC50 [21, 35]: 6.31 µM
- TGI ([21]; read-out: pTGI (converted)): 3.55 µM
- GI50 ([22]; read-out: GI50): 0.372 µM
- CC50 [22, 34]: 5.74 µM
- TGI ([22]; read-out: TGI): 1.9 µM
- GI50 ([22]; read-out: pGI50 (converted)): 0.372 µM
- CC50 [22, 35]: 5.75 µM
- TGI ([22]; read-out: pTGI (converted)): 1.91 µM
- GI50 ([23]; read-out: GI50): 4.06 µM
- CC50 [23, 34]: > 100 µM
- TGI ([23]; read-out: TGI): 20.5 µM
- GI50 ([23]; read-out: pGI50 (converted)): 4.07 µM
- CC50 [23, 35]: > 100 µM
- TGI ([23]; read-out: pTGI (converted)): 20.4 µM
- GI50 ([24]; read-out: GI50): 2.75 µM
- CC50 [24, 34]: 41.2 µM
- TGI ([24]; read-out: TGI): 7.49 µM
- GI50 ([24]; read-out: pGI50 (converted)): 2.75 µM
- CC50 [24, 35]: 40.7 µM
- TGI ([24]; read-out: pTGI (converted)): 7.41 µM
- Activity [25]: 40%
- Activity [26]: 72%
- Activity [27]: 99%
- Activity [28]: 97%
- Activity [29]: 62%
- Activity [30]: 75%
- Activity [31]: 95%
- Activity [32]: 99%
- Activity [33]: 24%

Compound: CN1CCN(CCCn2c3c(sc4ncccc43)c(=O)n3nnc(-c4ccccc4)c23)CC1
- Activity [1]: 102%
- Activity [2]: 100%
- Activity [3]: 101%
- Activity [4]: 83%
- Activity [5]: 97%
- Activity [6]: 97%
- Activity [7]: -84%
- Activity [8]: -67%
- Activity [9]: -46%
- Activity [10]: -92%
- Activity [11]: -81%
- Activity [12]: -84%
- Activity [13]: 89%
- Activity [14]: 99%
- Activity [15]: 89%
- GI50 ([16]; read-out: GI50): 1.85 µM
- CC50 [16, 34]: 7.24 µM
- TGI ([16]; read-out: TGI): 3.66 µM
- GI50 ([16]; read-out: pGI50 (converted)): 1.86 µM
- CC50 [16, 35]: 7.24 µM
- TGI ([16]; read-out: pTGI (converted)): 3.63 µM
- GI50 ([17]; read-out: GI50): 2.15 µM
- TGI ([17]; read-out: TGI): 3.75 µM
- GI50 ([17]; read-out: pGI50 (converted)): 2.14 µM
- TGI ([17]; read-out: pTGI (converted)): 3.72 µM
- GI50 ([18]; read-out: GI50): 1.7 µM
- CC50 [18, 34]: 5.86 µM
- TGI ([18]; read-out: TGI): 3.15 µM
- GI50 ([18]; read-out: pGI50 (converted)): 1.7 µM
- CC50 [18, 35]: 5.89 µM
- TGI ([18]; read-out: pTGI (converted)): 3.16 µM
- GI50 ([19]; read-out: GI50): 15.8 µM
- CC50 [19, 34]: 55.5 µM
- TGI ([19]; read-out: TGI): 29.6 µM
- GI50 ([19]; read-out: pGI50 (converted)): 15.8 µM
- CC50 [19, 35]: 55 µM
- TGI ([19]; read-out: pTGI (converted)): 29.5 µM
- GI50 ([20]; read-out: GI50): 1.87 µM
- CC50 [20, 34]: 6.68 µM
- TGI ([20]; read-out: TGI): 3.54 µM
- GI50 ([20]; read-out: pGI50 (converted)): 1.86 µM
- CC50 [20, 35]: 6.76 µM
- TGI ([20]; read-out: pTGI (converted)): 3.55 µM
- GI50 ([21]; read-out: GI50): 7.71 µM
- CC50 [21, 34]: 48.8 µM
- TGI ([21]; read-out: TGI): 21.7 µM
- GI50 ([21]; read-out: pGI50 (converted)): 7.76 µM
- CC50 [21, 35]: 49 µM
- TGI ([21]; read-out: pTGI (converted)): 21.9 µM
- GI50 ([22]; read-out: GI50): 1.82 µM
- CC50 [22, 34]: 8.26 µM
- TGI ([22]; read-out: TGI): 3.88 µM
- GI50 ([22]; read-out: pGI50 (converted)): 1.82 µM
- CC50 [22, 35]: 8.32 µM
- TGI ([22]; read-out: pTGI (converted)): 3.89 µM
- GI50 ([23]; read-out: GI50): 6.31 µM
- CC50 [23, 34]: 70.1 µM
- TGI ([23]; read-out: TGI): 24.3 µM
- GI50 ([23]; read-out: pGI50 (converted)): 6.31 µM
- CC50 [23, 35]: 70.8 µM
- TGI ([23]; read-out: pTGI (converted)): 24.5 µM
- GI50 ([24]; read-out: GI50): 13.9 µM
- CC50 [24, 34]: 64.2 µM
- TGI ([24]; read-out: TGI): 29.8 µM
- GI50 ([24]; read-out: pGI50 (converted)): 13.8 µM
- CC50 [24, 35]: 64.6 µM
- TGI ([24]; read-out: pTGI (converted)): 29.5 µM
- Activity [25]: 88%
- Activity [26]: 81%
- Activity [27]: 94%
- Activity [28]: 91%
- Activity [29]: 94%
- Activity [30]: 93%
- Activity [31]: 80%
- Activity [32]: 95%
- Activity [33]: 99%
